Laboratory results from patent US20220249607A1, “Method of treatment of degenerative diseases caused by membrane channel-forming peptides fragments” (Zarbio, priority 2021, published 2022).
“Also recorded” adds a separate entry of the source. Read-outs that look alike come from different tables or passages of the source.

Legend:
[1] = Flow cytometric permeabilization of neutral liposomes to calcium; details: phosphatidylcholine liposomes, Fluo-3, flow cytometry
Procedure: (§1) The figure is a composite of data which was presented and analyzed in detail in (Zaretsky and Zaretskaia 2020, Zaretsky and Zaretskaia 2020). Liposomes (400 nm) were made of either phosphatidylserine (A-E, negatively charged lipid) or phosphatidylcholine (F-H, neutral lipid) with added DiD and were extruded in the Ca-free buffer containing 1 mM Fluo-3. After the addition of calcium, aliquots of peptide were added. Ionomycin was used as a positive control. Fluorescence of liposomes was analyzed using a flow cytometer. Each dot at the graph represent a single liposome registered in the flow. The intensity of DiD fluorescence characterizes the amount of membrane material in the liposome, while the fluorescence of Fluo-3 depends on the intraliposomal presence of calcium. […] The liposomes inside rectangle (area R1) are permeabilized, and the number of liposomes which were counted to be within the area is shown.

[2] = Flow cytometric permeabilization of negatively charged liposomes to calcium; details: for permeabilization of negatively charged liposomes to calcium: phosphatidylserine liposomes, Fluo-3, flow cytometry
Text: To improve the quantitative aspect of studying the permeabilization of liposomes by […], we developed a flow cytometric technique which allowed us to estimate the number of channel-forming units in the solutions of peptide (Zaretsky and Zaretskaia 2020). This number appears extremely small compared to the total amount of peptide. In model conditions, one channel is formed out of approximately 10^12 molecules of Aβ25-35. The low ratio of channels created by the peptide would not allow for the studying of channel formation using typical methods of protein biology, such as spectroscopy or NMR, for the reason that the signal of interest being too low. Even though the proportion of channels is small, when the peptide was added in micromolar concentrations, thousands of permeabilized vesicles could be observed, which makes the power of channel formation biologically relevant.
as §1

[3] = molecular target: amyloid channels (Homo sapiens, UniProt P05067); details: cited from earlier work
amyloid channels, sequence (P05067 672-713 limits assumed): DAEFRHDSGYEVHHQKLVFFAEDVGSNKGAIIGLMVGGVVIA

[4] = test system: Aβ-induced apoptosis in the brain; details: rat brain, cited from earlier work; for effect on Aβ-induced apoptosis (TUNEL) / effect on accumulation of Aβ immunoreactivity / amyloid: simultaneous i.c.v. infusion with Aβ; for effect on apoptosis by the inhibitor itself (spontaneous apoptosis): without Aβ, TUNEL
[5] = test system: lysosomes of cells loaded with Lucifer Yellow; details: 20 hours incubation; Ji, Miranda et al. 2002; cited from earlier work
[6] = cited from earlier work
[7] = test system: 15 cells derived from pancreatic islets of Langerhans; details: cited from earlier work; for effect on beta-amyloid-induced drop in cell viability: MTT, stated for both cell lines
[8] = test system: Aβ1-42 toxicity; details: cited from earlier work
[9] = test system: 15 cells derived from pancreatic islets of Langerhans; details: cited from earlier work
[10] = test system: Aβ1-42-induced drop of cell survival; details: Tizon, Ribe et al. 2010; cited from earlier work
[11] = study of Aksenov, Aksenova et al. 1996

With `C[C@H](CCC(=O)O)C[C@H](C)C[C@H](C)C(=O)/C=C(\O)[C@H](C)C[C@H](C)C/C=C/[C@@H](C)[C@@H](O)[C@@H](C)[C@@H](O)C[C@@H]1CC[C@@](C)([C@H]2CC[C@@](C)([C@@H](C)O)O2)O1` [ionomycin] the “permeabilization of neutral liposomes to calcium” value [1] was “permeabilizes thousands of liposomes” and the “permeabilization of negatively charged liposomes to calcium” value [2] was “permeabilizes liposomes”.

For “Aβ22-35: longer beta-amyloid fragment without positive overall charge, non-channel-forming (EDVGSNKGAIIGLM; Amyloid-beta protein 42; UniProt P05067 693-706, looked up, fragment)”, the “permeabilization of negatively charged liposomes to calcium” value [2] was “does not create a noticeable number of channels; also recorded: does not permeabilize liposomes”.

For `NC(CO)(CO)CO` [tromethamine], the “blockade of smaller amyloid channels” value ([3]; channels <400 pS) is given as “effectively blocked” and the “blockade of giant amyloid channels” value ([3]; super-high conductance channels >1 nS) is given as “less effective”.

In the case of `CC(=O)N[C@@H](CC(C)C)C(=O)N[C@@H](CC(C)C)C(=O)N[C@H](C=O)CCCNC(=N)N` [leupeptin], the “effect on Aβ-induced apoptosis (TUNEL)” value [4] is given as “promoted apoptosis”, the “effect on accumulation of Aβ immunoreactivity / amyloid” value [4] is given as “promoted” and the “effect on apoptosis by the inhibitor itself (spontaneous apoptosis)” value [4] is given as “tends to increase apoptosis by itself”.

For Aβ1-42: full-length amyloid peptide, the “permeabilization of negatively charged liposomes to calcium” value [2] is given as “ineffective in the permeabilization of the membranes; also recorded: does not permeabilize liposomal membranes” and the “pattern of Lucifer Yellow fluorescence in cells (lysosomal permeabilization)” value [5] is given as “diffuse intracellular pattern of fluorescence”.

For aprotinin, the “effect on Aβ-induced apoptosis (TUNEL)” value [4] is given as “prevented Aβ-induced apoptosis”, the “effect on accumulation of Aβ immunoreactivity / amyloid” value [4] is given as “did not exacerbate intracellular accumulation of amyloid” and the “effect on apoptosis by the inhibitor itself (spontaneous apoptosis)” value [4] is given as “tends to decrease even spontaneously occurring apoptosis”.

With “Aβ25-35: positively charged short channel-forming fragment of beta-amyloid (GSNKGAIIGLM; Amyloid-beta protein 42; UniProt P05067 696-706, looked up, fragment)” the “permeabilization of neutral liposomes to calcium” value [1] was “does not permeabilize liposomes; also recorded: not permeabilized”, the “number of peptide molecules out of which one channel is formed” value ([2]; model conditions) was “approximately 10^12 molecules” and the “permeabilization of negatively charged liposomes to calcium” value [2] was “creates multiple liposomes permeable to calcium”. For the same molecule, the “percentage of channels with a conductance” value ([6]; acidic pH (pH 5.0), 20 μM peptide) was “more than 30%” and the “conductance of formed channels” value ([6]; upper end of conductance) was “up to 1 nS”.

B1: α1-anti-chymotrypsin (protein, UniProt P01011 24-423, looked up)
Alpha-1-antichymotrypsin: HPNSPLDEENLTQENQDRGTHVDLGLASANVDFAFSLYKQLVLKAPDKNVIFSPLSISTALAFLSLGAHNTTLTEILKGLKFNLTETSEAEIHQSFQHLLRTLNQSSDELQLSMGNAMFVKEQLSLLDRFTEDAKRLYGSEAFATDFQDSAAAKKLINDYVKNGTRGKITDLIKDLDSQTMMVLVNYIFFKAKWEMPFDPQDTHQSRFYLSKKKWVMVPMMSLHHLTIPYFRDEELSCTVVELKYTGNASALFILPDQDKMEEVEAMLLPETLKRWRDSLEFREIGELYLPKFSISRDYNLNDILLQLGIEEAFTSKADLSGITGARNLAVSQVVHKAVLDVFEEGTEASAATAVKITLLSALVETRTIVRFNRPFLMIIVPTDTQNIFFMSKVTNPKQA
In the case of B1, the “effect on beta-amyloid-induced drop in cell viability” value [7] is given as “can protect against Aβ-induced drop in cell viability”, the “effect on beta-amyloid-induced drop in cell viability” value ([7]; listed as α1-anti-chymotrypsin) is given as “prevented” and the “effect of further increase of concentration on protection against beta-amyloid” value ([7]; above optimal dose, both cell lines) is given as “disappearance of protection”. The “protection against beta-amyloid-induced drop in cell viability” value ([7]; in some conditions, stated for both cell lines (15 cells, cortical cultures)) was at most 100%, the “effect on Aβ1-42 toxicity” value [8, 11] was “attenuated Aβ1-42 toxicity” and the “effect on fibril formation” value [8, 11] was “without affecting fibril formation”. The “effect on Aβ toxicity” value ([8]; study of Ma, Brewer et al. 1996) was “not effective”, the “effect on amylin-induced drop in cell viability” value ([9]; MTT, listed as anti-chymotrypsin) was “prevent amylin-induced cellular toxicity” and the “effect on amylin-induced drop in cell viability” value ([9]; MTT, listed as α1-anti-chymotrypsin) was “prevented”. The protection against amylin ([9]; MTT) was under 100% and the “effect of further increase of concentration on protection against amylin” value ([9]; above optimal dose) was “significantly decreased the protective effect”.

B2: cystatin C (protein, UniProt P01034 27-146, looked up)
Cystatin-C: SSPGKPPRLVGGPMDASVEEEGVRRALDFAVGEYNKASNDMYHSRALQVVRARKQIVAGVNYFLDVELGRTTCTKTQPNLDNCPFHDQPHLKRKAFCSFQIYAVPWQGTMTLSKSTCQDA
For B2, the “effect on drop of cell survival induced by Aβ1-42” value [10] is given as “prevented the drop of cell survival”.
